# Experimental data: patent publication US20060019952A1, “Anti-viral therapeutics” (ELIXIR PHARMACEUTICALS, INC., priority 2004, published 2006)
# Biological target: T1, GFP-hSIRT2 isoform 1 (Homo sapiens, UniProt Q8IXJ6)
# T1 construct: expressed in transfected cells; host or cells: HeLa
# T1 sequence (Q8IXJ6 1-389): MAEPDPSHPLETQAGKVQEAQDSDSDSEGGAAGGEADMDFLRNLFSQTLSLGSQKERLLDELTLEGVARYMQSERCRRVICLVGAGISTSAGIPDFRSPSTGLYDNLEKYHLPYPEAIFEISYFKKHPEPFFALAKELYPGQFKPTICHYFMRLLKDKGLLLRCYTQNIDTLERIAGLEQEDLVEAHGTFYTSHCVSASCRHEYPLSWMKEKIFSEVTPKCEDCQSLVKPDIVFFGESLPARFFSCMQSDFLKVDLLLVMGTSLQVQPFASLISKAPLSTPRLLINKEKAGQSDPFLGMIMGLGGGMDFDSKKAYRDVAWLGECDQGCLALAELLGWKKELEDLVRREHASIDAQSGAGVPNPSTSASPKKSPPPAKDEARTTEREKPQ
# Assay: Acetylated tubulin staining in HeLa cells transfected with GFP-hSIRT2 isoform 1
# Type: cell-based
# Conditions: 50 μM compound with 1 μM TSA, added 36 hours post transfection, fixed next morning, versus DMSO
# Description: HeLa cells were transfected with GFP-hSIRT2 isoform 1. At 36 hours post transfection 1 μM of TSA and either DMSO or 50 μM of Compound 8 was added. The next morning cells were fixed, permeabilized, and stained for acetylated tubulin.
structure (smiles),measurement,value
"NC(=O)COC(=O)c1sc2ccccc2c1Cl [Compound 8, 3-Chloro-benzo[b]thiophene-2-carboxylic acid carbamoylmethyl ester]",tubulin acetylation in cells expressing SIRT2 (staining for acetylated tubulin),more highly acetylated
